Assays:
Format in all cases: in vivo
[1] = tested on: Italian ryegrass (Lolium mutiflorum); assay: Test C preemergence, visual plant response rating; conditions: Test C, 0 is no effect, 100 is complete control
How it was run: (§1)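 Compounds in a non-phytotoxic solvent with surfactant were applied as a directed soil spray preemergence or to 2–10 cm, one- to two-leaf plants postemergence, in loam–sand soil. After about 10 d in a greenhouse, injury was visually rated against untreated controls on a 0–100 scale (100 = complete control).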

kochia (Bassia scoparia) [2] = assay: Test C preemergence, visual plant response rating; conditions: Test C, 0 is no effect, 100 is complete control
How it was run: as §1

[3] = tested on: ragweed (common ragweed, Ambrosia artemisiifolia); assay: Test C preemergence, visual plant response rating; conditions: Test C, 0 is no effect, 100 is complete control
How it was run: as §1

[4] = tested on: barnyardgrass (Echinochloa crus-galli); assay: Test C preemergence, visual plant response rating; conditions: Test C, 0 is no effect, 100 is complete control
How it was run: as §1

[5] = tested on: pigweed (Amaranthus retroflexus); assay: Test C preemergence, visual plant response rating; conditions: Test C, 0 is no effect, 100 is complete control
How it was run: as §1

[6] = tested on: foxtail, giant (giant foxtail, Setaria faberi); assay: Test C preemergence, visual plant response rating; conditions: Test C, 0 is no effect, 100 is complete control
How it was run: as §1

[7] = tested on: Italian ryegrass (Lolium mutiflorum); assay: Test C postemergence, visual plant response rating
How it was run: as §1

corn (Zea mays) = assay: Test C postemergence, visual plant response rating
How it was run: as §1

kochia (Bassia scoparia) [8] = assay: Test C postemergence, visual plant response rating
How it was run: as §1

[9] = tested on: blackgrass (Alopecurus myosuroides); assay: Test C postemergence, visual plant response rating
How it was run: as §1

[10] = tested on: galium (catchweed bedstraw, Galium aparine); assay: Test C postemergence, visual plant response rating
How it was run: as §1

[11] = tested on: ragweed (common ragweed, Ambrosia artemisiifolia); assay: Test C postemergence, visual plant response rating
How it was run: as §1

[12] = tested on: barnyardgrass (Echinochloa crus-galli); assay: Test C postemergence, visual plant response rating
How it was run: as §1

[13] = tested on: pigweed (Amaranthus retroflexus); assay: Test C postemergence, visual plant response rating
How it was run: as §1

[14] = tested on: wheat (Triticum aestivum); assay: Test C postemergence, visual plant response rating
How it was run: as §1

[15] = tested on: foxtail, giant (giant foxtail, Setaria faberi); assay: Test C postemergence, visual plant response rating
How it was run: as §1

rice (Oryza sativa) = assay: Test D flooded paddy test, visual plant response rating; conditions: 250 g ai/ha, scale 0 to 100 (0 no effect, 100 complete control), 13 to 15 d
How it was run: (§2)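 Plants were grown to the 2-leaf stage, pots flooded to 3 cm above soil, and compound applied directly into the paddy water, with the depth held throughout. After 13 to 15 d in a greenhouse, response was rated visually against untreated controls on a 0–100 scale (0 no effect, 100 complete control).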

[16] = tested on: duck salad (Heteranthera limosa); assay: as above; conditions: 250 g ai/ha, scale 0 to 100 (0 no effect, 100 complete control), 13 to 15 d
How it was run: as §2

[17] = tested on: sedge umbrella (small-flower umbrella sedge, Cyperus difformis); assay: as above; conditions: 250 g ai/ha, scale 0 to 100 (0 no effect, 100 complete control), 13 to 15 d
How it was run: as §2

[18] = tested on: barnyardgrass (Echinochloa crus-galli); assay: as above; conditions: 250 g ai/ha, scale 0 to 100 (0 no effect, 100 complete control), 13 to 15 d
How it was run: as §2

[19] = Test C, postemergence, 125 g ai/ha

SMILES | Ryegrass, Italian plant response rating (0 to 100 scale) ([1]; 31 g ai/ha) | Ryegrass, Italian plant response rating (0 to 100 scale) ([1]; 125 g ai/ha) | Kochia plant response rating (0 to 100 scale) (kochia (Bassia scoparia) [2]; 31 g ai/ha) | Kochia plant response rating (0 to 100 scale) (kochia (Bassia scoparia) [2]; 125 g ai/ha) | Ragweed plant response rating (0 to 100 scale) ([3]; 31 g ai/ha) | Ragweed plant response rating (0 to 100 scale) ([3]; 125 g ai/ha) | Barnyardgrass plant response rating (0 to 100 scale) ([4]; 31 g ai/ha) | Barnyardgrass plant response rating (0 to 100 scale) ([4]; 125 g ai/ha) | Pigweed plant response rating (0 to 100 scale) ([5]; 31 g ai/ha) | Pigweed plant response rating (0 to 100 scale) ([5]; 125 g ai/ha) | Foxtail, Giant plant response rating (0 to 100 scale) ([6]; 31 g ai/ha) | Foxtail, Giant plant response rating (0 to 100 scale) ([6]; 125 g ai/ha) | Ryegrass, Italian plant response rating (0 to 100 scale) ([7]; Postemergence, 31 g ai/ha) | Ryegrass, Italian plant response rating (0 to 100 scale) [7, 19] | Corn plant response rating (0 to 100 scale) (corn (Zea mays); Postemergence, 31 g ai/ha) | Corn plant response rating (0 to 100 scale) (corn (Zea mays); [19]) | Kochia plant response rating (0 to 100 scale) (kochia (Bassia scoparia) [8]; Postemergence, 31 g ai/ha) | Kochia plant response rating (0 to 100 scale) (kochia (Bassia scoparia) [8]; [19]) | Blackgrass plant response rating (0 to 100 scale) ([9]; Postemergence, 31 g ai/ha) | Blackgrass plant response rating (0 to 100 scale) [9, 19] | further results
CON=C(c1cc(Cl)cc(F)c1Cl)c1c(O)c(C)nn(C)c1=O [Compound 271] | 80 | 100 | 20 | 100 | 30 | 80 | 30 | 50 | 100 | 100 | 40 | 80 | 80 | 100 | 10 | 30 | 60 | 80 | 20 | 40 | Galium plant response rating (0 to 100 scale) ([10]; Postemergence, 31 g ai/ha): 100; Galium plant response rating (0 to 100 scale) [10, 19]: 100; Ragweed plant response rating (0 to 100 scale) ([11]; Postemergence, 31 g ai/ha): 70; Ragweed plant response rating (0 to 100 scale) [11, 19]: 90; Barnyardgrass plant response rating (0 to 100 scale) ([12]; Postemergence, 31 g ai/ha): 40; Barnyardgrass plant response rating (0 to 100 scale) [12, 19]: 80; Pigweed plant response rating (0 to 100 scale) ([13]; Postemergence, 31 g ai/ha): 80; Pigweed plant response rating (0 to 100 scale) [13, 19]: 90; Wheat plant response rating (0 to 100 scale) ([14]; Postemergence, 31 g ai/ha): 30; Wheat plant response rating (0 to 100 scale) [14, 19]: 70; Foxtail, Giant plant response rating (0 to 100 scale) ([15]; Postemergence, 31 g ai/ha): 70; Foxtail, Giant plant response rating (0 to 100 scale) [15, 19]: 80; Plant response rating, Rice (Flood) (rice (Oryza sativa)): 0; Plant response rating, Ducksalad (Flood) [16]: 0; Plant response rating, Sedge, Umbrella (Flood) [17]: 0; Plant response rating, Barnyardgrass (Flood) [18]: 0
CON=C(c1cc(Cl)cc(F)c1Cl)c1c(O)c(C)nn(C)c1=O [Compound 272] | 90 | 100 | 10 | 90 | 20 | 40 | 30 | 50 | 70 | 100 | 80 | 80 | 90 | 100 | 10 | 20 | 70 | 80 | 30 | 80 | Galium plant response rating (0 to 100 scale) ([10]; Postemergence, 31 g ai/ha): 90; Galium plant response rating (0 to 100 scale) [10, 19]: 100; Ragweed plant response rating (0 to 100 scale) ([11]; Postemergence, 31 g ai/ha): 60; Ragweed plant response rating (0 to 100 scale) [11, 19]: 80; Barnyardgrass plant response rating (0 to 100 scale) ([12]; Postemergence, 31 g ai/ha): 40; Barnyardgrass plant response rating (0 to 100 scale) [12, 19]: 60; Pigweed plant response rating (0 to 100 scale) ([13]; Postemergence, 31 g ai/ha): 70; Pigweed plant response rating (0 to 100 scale) [13, 19]: 90; Wheat plant response rating (0 to 100 scale) ([14]; Postemergence, 31 g ai/ha): 30; Wheat plant response rating (0 to 100 scale) [14, 19]: 60; Foxtail, Giant plant response rating (0 to 100 scale) ([15]; Postemergence, 31 g ai/ha): 60; Foxtail, Giant plant response rating (0 to 100 scale) [15, 19]: 90; Plant response rating, Rice (Flood) (rice (Oryza sativa)): 15; Plant response rating, Ducksalad (Flood) [16]: 60; Plant response rating, Sedge, Umbrella (Flood) [17]: 65; Plant response rating, Barnyardgrass (Flood) [18]: 25
CCO/N=C(\c1c(O)c(C)nn(C)c1=O)c1cccc2cc(Cl)ccc12 [Compound 273] | 0 | 40 | 0 | 40 | 20 | 20 | 40 | 80 | 90 | 90 | 80 | 90 | 10 | 60 | 0 | 30 | 40 | 60 | 80 | 90 | Galium plant response rating (0 to 100 scale) ([10]; Postemergence, 31 g ai/ha): 100; Galium plant response rating (0 to 100 scale) [10, 19]: 100; Ragweed plant response rating (0 to 100 scale) ([11]; Postemergence, 31 g ai/ha): 90; Ragweed plant response rating (0 to 100 scale) [11, 19]: 100; Barnyardgrass plant response rating (0 to 100 scale) ([12]; Postemergence, 31 g ai/ha): 40; Barnyardgrass plant response rating (0 to 100 scale) [12, 19]: 80; Pigweed plant response rating (0 to 100 scale) ([13]; Postemergence, 31 g ai/ha): 90; Pigweed plant response rating (0 to 100 scale) [13, 19]: 100; Wheat plant response rating (0 to 100 scale) ([14]; Postemergence, 31 g ai/ha): 0; Wheat plant response rating (0 to 100 scale) [14, 19]: 0; Foxtail, Giant plant response rating (0 to 100 scale) ([15]; Postemergence, 31 g ai/ha): 100; Foxtail, Giant plant response rating (0 to 100 scale) [15, 19]: 100; Plant response rating, Rice (Flood) (rice (Oryza sativa)): 85; Plant response rating, Ducksalad (Flood) [16]: 95; Plant response rating, Sedge, Umbrella (Flood) [17]: 95; Plant response rating, Barnyardgrass (Flood) [18]: 90
C#CCO/N=C(/c1cccc(Br)c1)c1c(O)c(C)nn(C)c1=O [Compound 277] | 10 | 100 | 0 | 90 | 20 | 80 | 0 | 30 | 10 | 70 | 10 | 30 | 40 | 70 | 10 | 30 | 50 | 70 | 30 | 80 | Galium plant response rating (0 to 100 scale) ([10]; Postemergence, 31 g ai/ha): 70; Galium plant response rating (0 to 100 scale) [10, 19]: 80; Ragweed plant response rating (0 to 100 scale) ([11]; Postemergence, 31 g ai/ha): 40; Ragweed plant response rating (0 to 100 scale) [11, 19]: 90; Barnyardgrass plant response rating (0 to 100 scale) ([12]; Postemergence, 31 g ai/ha): 20; Barnyardgrass plant response rating (0 to 100 scale) [12, 19]: 60; Pigweed plant response rating (0 to 100 scale) ([13]; Postemergence, 31 g ai/ha): 40; Pigweed plant response rating (0 to 100 scale) [13, 19]: 60; Wheat plant response rating (0 to 100 scale) ([14]; Postemergence, 31 g ai/ha): 30; Wheat plant response rating (0 to 100 scale) [14, 19]: 70; Foxtail, Giant plant response rating (0 to 100 scale) ([15]; Postemergence, 31 g ai/ha): 10; Foxtail, Giant plant response rating (0 to 100 scale) [15, 19]: 60; Plant response rating, Rice (Flood) (rice (Oryza sativa)): 0; Plant response rating, Ducksalad (Flood) [16]: 0; Plant response rating, Sedge, Umbrella (Flood) [17]: 0; Plant response rating, Barnyardgrass (Flood) [18]: 0
